This assay relates to CpG-ODN effect on thymidine uptake by WEHI 231 B-cells. In words: Inhibition of CpG-ODN effect on thymidine uptake by WEHI 231 B-cells treated with anti-surface IgM. The class given is cell-based, murine. The text has this: The ability of analogs to inhibit an immunostimulatory effect of CpG-ODN was examined. This assay measures the reversal of the protection by CpG-ODN against surface IgM induced killing of WEHI 231 cells.

[1] abbreviates: concentration required for 50% blockage of the ability of CpG-ODN to rescue WEHI 231 cells from anti-surface IgM-induced cell death, read-out: 50% Efficacy.
Where [2] appears, read: concentration for half-maximal inhibition of CpG-ODN effect on thymidine uptake by WEHI 231 B-cells in presence of anti-sIgM, estimated experimental error ± 15%, read-out: EC50.
Setting [3] is: Mus musculus, WEHI231, concentration for half-maximal inhibition of CpG-ODN effect on thymidine uptake by WEHI 231 B-cells in presence of anti-sIgM, estimated experimental error ± 15%, read-out: EC50.
[4] abbreviates: Mus musculus, WEHI231, concentration required for 50% blockage of the ability of CpG-ODN to rescue WEHI 231 cells from anti-surface IgM-induced cell death, read-out: 50% Efficacy.

SMILES strings stand for the structures. Where two headings read alike, the source gives them in different places.

For the compound `COc1ccc2nc3cc(Cl)ccc3c(NC3CCCCC3Nc3ccnc4cc(Cl)ccc34)c2c1` (racemic) [Ism 9], the EC50 under setting [1] is 105 nM.

Turning to `COc1ccc2nc3cc(Cl)ccc3c(NC3CCCCC3Nc3c4ccc(Cl)cc4nc4ccc(OC)cc34)c2c1` (racemic) [Ism 16], the EC50 under setting [1] is 14.5 nM.

Regarding `CCN(CC)CCCC(Nc1c2ccc(Cl)cc2nc2ccc(OC)cc12)c1ccncc1` (stereo not shown) [10591-T/2, reference compound], under setting [1], the EC50 stood at 30.2 nM.

Turning to `CN(C)CCNc1cc(-c2ccc3ccc4ccccc4c3c2)nc2ccccc12` [Compound 2], the EC50 under setting [2] was 11 nM.

Consider `Cc1ccc(-c2cc(NCCN(C)C)c3ccccc3n2)cc1` [Compound 4], for which the EC50 under setting [2] was 12.3 nM.

For `CN(C)CCNc1cc(/C=C/c2ccccc2)nc2ccccc12` [Compound 5], the EC50 under setting [2] was 6.5 nM.

Regarding `CN(C)CCNc1cc(-c2ccc(C(F)(F)F)cc2)nc2ccccc12` [Compound 6], under setting [2], the EC50 is 155 nM.

For the compound `CN(C)CCCNc1ccnc2ccccc12` [Compound 11], the EC50 under setting [2] was 4400 nM.

As to `Cc1ccc(-c2cc(NCCCN(C)C)c3ccccc3n2)cc1` [Compound 12], the EC50 under setting [2] is 11.5 nM.

Regarding `CN(C)CCCNc1cc(-c2ccc3ccccc3c2)nc2ccccc12` [Compound 13], the EC50 under setting [2] was 11 nM.

As for `CN(C)CCCCNc1ccnc2ccccc12` [Compound 14], under setting [2], the EC50 was 316 nM.

`CN(C)CCCCNc1cc(-c2ccc3ccccc3c2)nc2ccccc12` [Compound 15]: under setting [2], the EC50 is 4 nM.

Consider `CN(C)CCCCCCNc1cc(-c2ccc3ccccc3c2)nc2ccccc12` [Compound 16], for which the EC50 under setting [2] is 5.9 nM.

As to `CC(C)(C)OC(=O)NCCNc1cc(-c2ccc3ccccc3c2)nc2ccccc12` [Compound 20], the EC50 under setting [2] was 570 nM.

In the case of `CC(CCCC(C)(C)O)Nc1cc(-c2ccc3ccccc3c2)nc2ccccc12` (stereo not shown) [Compound 21], the EC50 under setting [2] was 1150 nM.

With `CC(Nc1cc(-c2ccc3ccccc3c2)nc2ccccc12)C(O)c1ccccc1` (stereo not shown) [Compound 22], the EC50 under setting [2] is 1000 nM.

As for `OCCOCCNc1cc(-c2ccc3ccccc3c2)nc2ccccc12` [Compound 23], the EC50 under setting [2] was 330 nM.

With `OCCCCCCNc1cc(-c2ccc3ccccc3c2)nc2ccccc12` [Compound 24], the EC50 under setting [2] was 170 nM.

`O=C(CCCO)NCCCN1CCN(CCCNc2cc(-c3ccc4ccccc4c3)nc3ccccc23)CC1` [Compound 25]: the EC50 under setting [2] is 25.1 nM.

Take `CCCCc1ccc(Nc2cc(-c3ccc4ccccc4c3)nc3ccccc23)cc1` [Compound 26]: under setting [2], the EC50 is over 10000 nM.

With `OCCc1ccc(Nc2cc(-c3ccc4ccccc4c3)nc3ccccc23)cc1` [Compound 27], the EC50 under setting [2] was 510 nM.

As to `Oc1ccc(Nc2cc(-c3ccc4ccccc4c3)nc3ccccc23)cc1` [Compound 28], the EC50 under setting [3] was 320 nM.

With `Oc1c(CN2CCOCC2)cc(Nc2cc(-c3ccc4ccccc4c3)nc3ccccc23)cc1CN1CCOCC1` [Compound 29], the EC50 under setting [3] is 10 nM.

On to `Oc1c(CN2CCCCC2)cc(Nc2cc(-c3ccc4ccccc4c3)nc3ccccc23)cc1CN1CCCCC1` [Compound 30], for which the EC50 under setting [3] was 1.5 nM.

Turning to `Oc1c(CN2CCCC2)cc(Nc2cc(-c3ccc4ccccc4c3)nc3ccccc23)cc1CN1CCCC1` [Compound 31], the EC50 under setting [3] was 1.2 nM.

On to `CN1CCN(Cc2cc(Nc3cc(-c4ccc5ccccc5c4)nc4ccccc34)cc(CN3CCN(C)CC3)c2O)CC1` [Compound 32], for which the EC50 under setting [3] is 0.24 nM.

Turning to `CCN(CCO)CCCC(C)Nc1ccnc2cc(Cl)ccc12` (stereo not shown) [Hydroxychloroquine, reference compound], the EC50 under setting [4] stood at 407 nM.

Consider `CN(C)CCNc1cc(-c2ccc3ccccc3c2)nc2ccccc12` [LS-8], for which the EC50 under setting [1] amounted to 9.5 nM.

Take `CCCCN(CCCC)CCCNc1cc(-c2ccc3ccccc3c2)nc2ccccc12` [MHQ-6]: the EC50 under setting [1] amounted to 16.3 nM.

Take `CN(C)CCCCCCNc1cc(-c2ccc3ccccc3c2)nc2ccccc12` [OZ-123]: the EC50 under setting [1] came out at 5.9 nM.

Take `C=C[C@H]1C[N@@]2CC[C@H]1C[C@H]2[C@H](O)c1ccnc2ccc(OC)cc12` [Quinine, reference compound]: the EC50 under setting [4] came out at 23000 nM.

These data come from patent US6479504B1, “Antagonism of immunostimulatory CpG-oligonucleotides by 4-aminoquinolines and other weak bases” (The University of Iowa Research Foundation, priority 1999, dated 2002).
